{
  "source": "ChEMBL document CHEMBL4118060",
  "about": "“A unique mid-sequence linker used to multimerize the lipid-phosphatidylserine (PS) binding peptide-peptoid hybrid PPS1” (Eur J Med Chem, 2017)",
  "key": {"[1]": {"system": "HCC4017", "experiment": "Cytotoxicity against human HCC4017 cells assessed as decrease in cell viability at 0.001 to 50 uM after 24 hrs by MTS assay", "format": "functional, cell-based"}, "[2]": {"system": "HCC4017", "experiment": "Cytotoxicity against human HCC4017 cells assessed as decrease in cell viability at 0.001 to 50 uM after 24 hrs by calcein AM dye-based fluorescence assay", "format": "functional"}},
  "note": "Calls of active or inactive are those of the source. The calls are words filed in the database; no cut-off is given here. Bridge positions count the residues as written; N and C are the ends. Square brackets hold non-standard residues; d marks the D form. Side chains are listed from the residue outwards. Peptide text beside a SMILES is read from it. I, II: the chains in the order shown. ξ: configuration not given here. Gly(N-piperonyl) = O=C(O)CNCc1ccc2c(c1)OCO2; N(4-MeOBn)Gly = COc1ccc(CNCC(=O)O)cc1; Nrpe = C[C@@H](NCC(=O)O)c1ccccc1; NAllylGly = C=CCNCC(=O)O; AEEA = NCCOCCOCC(=O)O; Nlys = NCCCCNCC(=O)O; ξK = NCCCCC(N)C(=O)O; ξM = CSCCC(N)C(=O)O; Nme = COCCNCC(=O)O; βAla = NCCC(=O)O",
  "data": [
    {"smiles": "COc1ccc(CN(CC(=O)N(CCCCN)CC(=O)NC(CCCCN)C(=O)NC(CCCCN)C(=O)NC(CCSC)C(=O)NCCCCC(NC(=O)C(CCSC)NC(=O)C(CCCCN)NC(=O)C(CCCCN)NC(=O)CN(CCCCN)C(=O)CN(Cc2ccc(OC)cc2)C(=O)CN(C(=O)CN(Cc2ccc3c(c2)OCO3)C(=O)CN[C@H](C)c2ccccc2)[C@H](C)c2ccccc2)C(N)=O)C(=O)CN(C(=O)CN(Cc2ccc3c(c2)OCO3)C(=O)CN[C@H](C)c2ccccc2)[C@H](C)c2ccccc2)cc1", "note": "(some centres undefined) (I: H-[Nrpe][Gly(N-piperonyl)][Nrpe][N(4-MeOBn)Gly][Nlys][ξK][ξK][ξM][ξK]-NH2 / II: H-[Nrpe][Gly(N-piperonyl)][Nrpe][N(4-MeOBn)Gly][Nlys][ξK][ξK][ξM]; amide I:9-II:C)", "values": [
      {"measurement": "Activity", "setting": "[1]", "value": "Active"}
    ]},
    {"smiles": "C=CCNCC(=O)N(CCOC)CC(=O)N(CC=C)CC(=O)N(CCOC)CC(=O)N(CC=C)CC(=O)NCC(=O)NC(CCCCN)C(=O)NC(CCSC)C(=O)NCCCCC(NC(=O)C(CCSC)NC(=O)C(CCCCN)NC(=O)CNC(=O)CN(CC=C)C(=O)CN(CCOC)C(=O)CN(CC=C)C(=O)CN(CCOC)C(=O)CNCC=C)C(N)=O", "note": "(centres undefined) (I: H-[NAllylGly][Nme][NAllylGly][Nme][NAllylGly]GKMK-NH2 / II: H-[NAllylGly][Nme][NAllylGly][Nme][NAllylGly]GKM; amide I:9-II:C; configuration not given here)", "values": [
      {"measurement": "Activity", "setting": "[1]", "value": "inactive"}
    ]},
    {"smiles": "COc1ccc(CN(CC(=O)NC(CCCCNC(=O)C(CCCCN)NC(=O)C(CCCCN)NC(=O)CN)C(=O)NCCC(=O)NCCCCC(NC(=O)CN(Cc2ccc(OC)cc2)C(=O)CN(C(=O)CN(Cc2ccc3c(c2)OCO3)C(=O)CN[C@H](C)c2ccccc2)[C@H](C)c2ccccc2)C(=O)NC(CCCCN)C(=O)NC(CCCCN)C(=O)NC(CCSC)C(N)=O)C(=O)CN(C(=O)CN(Cc2ccc3c(c2)OCO3)C(=O)CN[C@H](C)c2ccccc2)[C@H](C)c2ccccc2)cc1", "note": "(some centres undefined) (I: H-[Nrpe][Gly(N-piperonyl)][Nrpe][N(4-MeOBn)Gly][ξK][ξK][ξK][ξM]-NH2 / II: H-[Nrpe][Gly(N-piperonyl)][Nrpe][N(4-MeOBn)Gly][ξK]([ξK-ξK-Gly])[βAla]; amide I:5-II:C)", "values": [
      {"measurement": "Activity", "setting": "[1]", "value": "Active"}
    ]},
    {"smiles": "COc1ccc(CN(CC(=O)NC(CCCCNC(=O)C(CCCCN)NC(=O)C(CCCCN)NC(=O)CN)C(=O)NCCOCCOCC(=O)NCCC(=O)NCCCCC(NC(=O)CN(Cc2ccc(OC)cc2)C(=O)CN(C(=O)CN(Cc2ccc3c(c2)OCO3)C(=O)CN[C@H](C)c2ccccc2)[C@H](C)c2ccccc2)C(=O)NC(CCCCN)C(=O)NC(CCCCN)C(=O)NC(CCSC)C(N)=O)C(=O)CN(C(=O)CN(Cc2ccc3c(c2)OCO3)C(=O)CN[C@H](C)c2ccccc2)[C@H](C)c2ccccc2)cc1", "note": "(some centres undefined) (I: H-[Nrpe][Gly(N-piperonyl)][Nrpe][N(4-MeOBn)Gly][ξK][ξK][ξK][ξM]-NH2 / II: H-[Nrpe][Gly(N-piperonyl)][Nrpe][N(4-MeOBn)Gly][ξK]([ξK-ξK-Gly])[AEEA][βAla]; amide I:5-II:C)", "values": [
      {"measurement": "Activity", "setting": "[1]", "value": "Active"}
    ]},
    {"smiles": "COc1ccc(CN(CC(=O)NC(CCCCNC(=O)C(CCCCNC(=O)C(CCCCN)NC(=O)C(CCCCN)NC(=O)C(CCSC)NC(=O)CN)NC(=O)CN(Cc2ccc(OC)cc2)C(=O)CN(C(=O)CN(Cc2ccc3c(c2)OCO3)C(=O)CN[C@H](C)c2ccccc2)[C@H](C)c2ccccc2)C(=O)NCCCCC(NC(=O)CN(Cc2ccc(OC)cc2)C(=O)CN(C(=O)CN(Cc2ccc3c(c2)OCO3)C(=O)CN[C@H](C)c2ccccc2)[C@H](C)c2ccccc2)C(=O)NC(CCCCN)C(=O)NC(CCCCN)C(=O)NC(CCSC)C(N)=O)C(=O)CN(C(=O)CN(Cc2ccc3c(c2)OCO3)C(=O)CN[C@H](C)c2ccccc2)[C@H](C)c2ccccc2)cc1", "note": "(some centres undefined) (I: H-[Nrpe][Gly(N-piperonyl)][Nrpe][N(4-MeOBn)Gly][ξK][ξK][ξK][ξM]-NH2 / II: H-[Nrpe][Gly(N-piperonyl)][Nrpe][N(4-MeOBn)Gly][ξK]([ξK-ξK-ξM-Gly]) / III: H-[Nrpe][Gly(N-piperonyl)][Nrpe][N(4-MeOBn)Gly][ξK]; amide I:5-III:C, II:C-III:5)", "values": [
      {"measurement": "Activity", "setting": "[1]", "value": "Active"},
      {"measurement": "Activity", "setting": "[2]", "value": "Active"}
    ]},
    {"smiles": "COc1ccc(CN(CC(=O)N(CCCCN)CC(=O)NC(CCCCN)C(=O)NC(CCCCN)C(=O)NC(CCSC)C(N)=O)C(=O)CN(C(=O)CN(Cc2ccc3c(c2)OCO3)C(=O)CN[C@H](C)c2ccccc2)[C@H](C)c2ccccc2)cc1", "note": "(some centres undefined) (H-[Nrpe][Gly(N-piperonyl)][Nrpe][N(4-MeOBn)Gly][Nlys][ξK][ξK][ξM]-NH2)", "values": [
      {"measurement": "Activity", "setting": "[1]", "value": "inactive"}
    ]},
    {"smiles": "COc1ccc(CN(CC(=O)NC(CCCCNC(=O)C(CCCCN)NC(=O)C(CCCCN)NC(=O)CN)C(=O)NC(CCCCN)C(=O)NC(CCCCN)C(N)=O)C(=O)CN(C(=O)CN(Cc2ccc3c(c2)OCO3)C(=O)CN[C@H](C)c2ccccc2)[C@H](C)c2ccccc2)cc1", "note": "(some centres undefined) (H-[Nrpe][Gly(N-piperonyl)][Nrpe][N(4-MeOBn)Gly][ξK]([ξK-ξK-Gly])[ξK][ξK]-NH2)", "values": [
      {"measurement": "Activity", "setting": "[1]", "value": "inactive"}
    ]},
    {"smiles": "COc1ccc(CN(CC(=O)NC(CCCCNC(=O)C(CCCCN)NC(=O)C(CCCCN)NC(=O)CN)C(=O)NCCCCC(NC(=O)CN(Cc2ccc(OC)cc2)C(=O)CN(C(=O)CN(Cc2ccc3c(c2)OCO3)C(=O)CN[C@H](C)c2ccccc2)[C@H](C)c2ccccc2)C(=O)NC(CCCCN)C(=O)NC(CCCCN)C(=O)NC(CCSC)C(N)=O)C(=O)CN(C(=O)CN(Cc2ccc3c(c2)OCO3)C(=O)CN[C@H](C)c2ccccc2)[C@H](C)c2ccccc2)cc1", "note": "(some centres undefined) (I: H-[Nrpe][Gly(N-piperonyl)][Nrpe][N(4-MeOBn)Gly][ξK][ξK][ξK][ξM]-NH2 / II: H-[Nrpe][Gly(N-piperonyl)][Nrpe][N(4-MeOBn)Gly][ξK]([ξK-ξK-Gly]); amide I:5-II:C)", "values": [
      {"measurement": "Activity", "setting": "[1]", "value": "Active"}
    ]}
  ]
}
